Calls of active or inactive are those of the source. No cut-off for these calls is given here.
Experiments:
[1] = tested on: B16-F10; assay: Cytotoxicity against mouse B16-F10 cells assessed as cell viability at 300 uM incubated for 48 hrs relative to control; format: functional; conditions: read-out: Activity
[2] = tested on: B16-F10; assay: Cytotoxicity against mouse B16-F10 cells assessed as cell viability at 3000 uM incubated for 48 hrs relative to control; format: functional; conditions: read-out: Activity
[3] = tested on: B16-F10; assay: Cytotoxicity against mouse B16-F10 cells assessed as cell viability at 300 uM incubated for 72 hrs relative to control; format: functional; conditions: for viability at 300 µM: read-out: Activity
[4] = tested on: B16-F10; assay: Cytotoxicity against mouse B16-F10 cells assessed as cell viability at 3000 uM incubated for 72 hrs relative to control; format: functional; conditions: for viability at 3000 µM: read-out: Activity
[5] = tested on: B16-F10; assay: Cytotoxicity against mouse B16-F10 cells assessed as cell viability at 3000 uM incubated for 24 hrs relative to control; format: functional; conditions: for viability at 3000 µM: read-out: Activity
[6] = tested on: B16-F10; assay: Cytotoxicity against mouse B16-F10 cells assessed as cell viability at 300 uM incubated for 24 hrs relative to control; format: functional; conditions: read-out: Activity
[7] = tested on: B16-F10; assay: Cytotoxicity against mouse B16-F10 cells assessed as cell viability at 30 uM incubated for 48 hrs relative to control; format: functional; conditions: read-out: Activity
[8] = tested on: B16-F10; assay: Cytotoxicity against mouse B16-F10 cells assessed as cell viability at 3 uM incubated for 48 hrs relative to control; format: functional; conditions: read-out: Activity
[9] = tested on: B16-F10; assay: Cytotoxicity against mouse B16-F10 cells assessed as cell viability at 3 to 3000 uM measured after 48 to 72 hrs; format: functional, cell-based; conditions: dose 3-3000 µM, time 48-72 hrs
[10] = tested on: B16-F10; assay: Cytotoxicity against mouse B16-F10 cells assessed as cell viability at 300 uM measured immediately relative to control; format: functional; conditions: read-out: Activity
[11] = tested on: B16-F10; assay: Cytotoxicity against mouse B16-F10 cells assessed as cell viability at 30 uM incubated for 72 hrs relative to control; format: functional; conditions: read-out: Activity
[12] = tested on: B16-F10; assay: Cytotoxicity against mouse B16-F10 cells assessed as decrease in cell viability at 3000 uM incubated for 72 hrs; format: functional, cell-based

NC(=O)N1N=CCC1(O)C(F)(F)F (stereo not drawn)
viability at 300 µM [1]: 43% | viability at 3000 µM [2]: 17% | viability at 300 µM [3]: 17% | viability at 3000 µM [4]: 7%

CCCCCCC1=NN(C(N)=S)C(O)(C(F)(F)F)C1 (stereo not drawn)
viability at 3000 µM [2]: 8% | viability at 3000 µM [4]: 8% | viability at 3000 µM [5]: 16%

CC1=NN(C(N)=S)C(O)(C(F)(F)F)C1 (stereo not drawn)
viability at 3000 µM [2]: 9% | viability at 3000 µM [4]: 4% | Activity [5]: Active

CCCCCCCCCCCC1=NN(C(N)=S)C(O)(C(F)(F)F)C1 (stereo not drawn)
viability at 300 µM [1]: 18% | viability at 300 µM [3]: 10% | viability at 300 µM [6]: 17% | viability at 30 µM [7]: 67% | viability at 3 µM [8]: 89%

NC(=S)N1N=CCC1(O)C(F)(F)F (stereo not drawn)
inhibition [9]: Active

CCCCCCCCCCCC1=NN(C(N)=O)C(O)(C(F)(F)F)C1 (stereo not drawn)
viability at 300 µM [1]: 16% | viability at 300 µM [6]: 17% | viability at 300 µM [10]: 78% | viability at 30 µM [7]: 76% | viability at 30 µM [11]: 51% | Activity [12]: Active

CCCCCCC1=NN(C(N)=O)C(O)(C(F)(F)F)C1 (stereo not drawn)
viability at 300 µM [1]: 53% | viability at 3000 µM [2]: 8% | Activity [3]: Active | Activity [4]: Active | viability at 3000 µM [5]: 76%

CC1=NN(C(N)=O)C(O)(C(F)(F)F)C1 (stereo not drawn)
Activity [12]: Active

Reference: ChEMBL document CHEMBL4814037, “Synthesis of pyrazoline fatty chain derivatives and its effects on melanoma cells” (2021)
